Measured values taken from ChEMBL document CHEMBL1150023, “Design and syntheses of 4-acylaminopyridine derivatives: Novel high affinity choline uptake enhancers II” (Bioorg Med Chem Lett, 1995).

Experiments:
Format in all cases: functional, organism-based
Details in all cases: Hippocampus
Rattus norvegicus [1] = species on record: Rattus norvegicus; experiment: Effect on the uptake amount of [3H]choline in the hippocampal synaptosomes of AF64A-treated rats at 10e-7 M
Rattus norvegicus [2] = species on record: Rattus norvegicus; experiment: Effect on the uptake amount of [3H]choline in the hippocampal synaptosomes of AF64A-treated rats at 10e-5 M
Rattus norvegicus [3] = species on record: Rattus norvegicus; experiment: Effect on the uptake amount of [3H]choline in the hippocampal synaptosomes of AF64A-treated rats at 10e-6 M

Q: Cc1oc2nc3c(c(NC(=O)CN4CCCC4=O)c2c1C)CCCC3 was tested. Which HACU improvement (Rattus norvegicus [1]) did it give?
A: The HACU improvement was 55%.

Q: What about the HACU improvement (Rattus norvegicus [2]) of the same molecule?
A: The HACU improvement was 64%.

Q: What about the HACU improvement (Rattus norvegicus [3]) of the same molecule?
A: The HACU improvement was 72%.

Q: With Cc1oc2nc3c(c(NC(=O)Cn4ccnc4)c2c1C)CCCC3 as the molecule, how does the HACU improvement (Rattus norvegicus [1]) read?
A: Its HACU improvement is 5%.

Q: And the HACU improvement (Rattus norvegicus [2])?
A: Its HACU improvement is 3%.

Q: What about the HACU improvement (Rattus norvegicus [3]) of the same molecule?
A: The HACU improvement was 4%.

Q: For CCCC(=O)Nc1c2c(nc3scc(C)c13)CCCC2, which HACU improvement (Rattus norvegicus [1]) is on record?
A: Its HACU improvement is 7%.

Q: And the HACU improvement (Rattus norvegicus [2])?
A: The HACU improvement was 1%.

Q: What about the HACU improvement (Rattus norvegicus [3]) of the same molecule?
A: The HACU improvement was 3%.

Q: What does the source list for CCCC(=O)Nc1c2c(nc3oc(C)nc13)CCCC2?
A: HACU improvement (Rattus norvegicus [1]): 4%; HACU improvement (Rattus norvegicus [2]): 18%; HACU improvement (Rattus norvegicus [3]): 2%

Q: CCCC(=O)Nc1c2c(nc3ccccc13)CCC(C)(C)C2 was tested. Which HACU improvement (Rattus norvegicus [1]) did it give?
A: The HACU improvement was -11%.

Q: What about the HACU improvement (Rattus norvegicus [2]) of the same molecule?
A: The HACU improvement was 1%.

Q: And the HACU improvement (Rattus norvegicus [3])?
A: Its HACU improvement is 3%.

Q: Which results are given for CNCC(=O)Nc1c2c(nc3oc(C)c(C)c13)CCCC2?
A: HACU improvement (Rattus norvegicus [1]): 14%; HACU improvement (Rattus norvegicus [2]): 3%; HACU improvement (Rattus norvegicus [3]): 10%

Q: For CCCC(=O)Nc1c2c(nc3ccccc13)CCCC2, which HACU improvement (Rattus norvegicus [1]) is on record?
A: The HACU improvement was 13%.

Q: And the HACU improvement (Rattus norvegicus [2])?
A: Its HACU improvement is 28%.

Q: And the HACU improvement (Rattus norvegicus [3])?
A: Its HACU improvement is 24%.

Q: CCCC(=O)Nc1c2c(nc3oc(C)c(C)c13)CCCC2 was tested. Which HACU improvement (Rattus norvegicus [1]) did it give?
A: The HACU improvement was 13%.

Q: And the HACU improvement (Rattus norvegicus [2])?
A: The HACU improvement was 38%.

Q: What about the HACU improvement (Rattus norvegicus [3]) of the same molecule?
A: Its HACU improvement is 20%.

Q: CCCC(=O)Nc1c2c(nc3sccc13)CCCC2 was tested. Which HACU improvement (Rattus norvegicus [1]) did it give?
A: Its HACU improvement is 1%.

Q: What about the HACU improvement (Rattus norvegicus [2]) of the same molecule?
A: The HACU improvement was 12%.

Q: What about the HACU improvement (Rattus norvegicus [3]) of the same molecule?
A: Its HACU improvement is 1%.

Q: What does the source list for CCCC(=O)Nc1c2c(nc3ccccc13)CCC(c1ccccc1)C2 (stereo not drawn)?
A: HACU improvement (Rattus norvegicus [1]): -1%; HACU improvement (Rattus norvegicus [2]): -6%; HACU improvement (Rattus norvegicus [3]): -7%

Q: With CCCC(=O)Nc1c2c(nc3sc(C)c(C)c13)CCCC2 as the molecule, how does the HACU improvement (Rattus norvegicus [1]) read?
A: The HACU improvement was 4%.

Q: What about the HACU improvement (Rattus norvegicus [2]) of the same molecule?
A: Its HACU improvement is 20%.

Q: What about the HACU improvement (Rattus norvegicus [3]) of the same molecule?
A: Its HACU improvement is 11%.

Q: How did the HACU improvement (Rattus norvegicus [1]) turn out when CCCC(=O)Nc1c2c(nc3cccc(C)c13)CCCC2 was run?
A: The HACU improvement was -2%.

Q: And the HACU improvement (Rattus norvegicus [2])?
A: Its HACU improvement is 10%.

Q: And the HACU improvement (Rattus norvegicus [3])?
A: Its HACU improvement is -4%.

Q: CCCC(=O)Nc1c2c(nc3ccccc13)CCC(C)C2 (stereo not drawn) was tested. Which HACU improvement (Rattus norvegicus [1]) did it give?
A: Its HACU improvement is -6%.

Q: And the HACU improvement (Rattus norvegicus [2])?
A: Its HACU improvement is 6%.

Q: And the HACU improvement (Rattus norvegicus [3])?
A: The HACU improvement was -16%.

Q: Which HACU improvement (Rattus norvegicus [1]) does the source give for CCCC(=O)Nc1c2c(nc3ccccc13)C1CCN2CC1 here?
A: Its HACU improvement is 7%.

Q: What about the HACU improvement (Rattus norvegicus [2]) of the same molecule?
A: The HACU improvement was 10%.

Q: And the HACU improvement (Rattus norvegicus [3])?
A: Its HACU improvement is 7%.

Q: For CCCC(=O)Nc1c2c(nc3ccccc13)CCN(C(=O)c1ccccc1)C2, which HACU improvement (Rattus norvegicus [1]) is on record?
A: The HACU improvement was 7%.

Q: What about the HACU improvement (Rattus norvegicus [2]) of the same molecule?
A: The HACU improvement was -7%.

Q: And the HACU improvement (Rattus norvegicus [3])?
A: The HACU improvement was 0%.

Q: CCCC(=O)Nc1c2c(nc3cc(F)ccc13)CCCC2 was tested. Which HACU improvement (Rattus norvegicus [1]) did it give?
A: Its HACU improvement is -1%.

Q: And the HACU improvement (Rattus norvegicus [2])?
A: The HACU improvement was -15%.

Q: What about the HACU improvement (Rattus norvegicus [3]) of the same molecule?
A: Its HACU improvement is 3%.

Q: For CCCC(=O)Nc1c2c(nc3ccccc13)C1CCC2CC1, which HACU improvement (Rattus norvegicus [1]) is on record?
A: Its HACU improvement is 5%.

Q: And the HACU improvement (Rattus norvegicus [2])?
A: The HACU improvement was -3%.

Q: And the HACU improvement (Rattus norvegicus [3])?
A: Its HACU improvement is -6%.

Q: What does the source list for CCCC(=O)Nc1c2c(nc3ccccc13)CCC1(CC1)C2?
A: HACU improvement (Rattus norvegicus [1]): 3%; HACU improvement (Rattus norvegicus [2]): 12%; HACU improvement (Rattus norvegicus [3]): 19%

Q: CCCC(=O)Nc1c2c(nc3ccccc13)CCN(Cc1ccccc1)C2 was tested. Which HACU improvement (Rattus norvegicus [1]) did it give?
A: The HACU improvement was 10%.

Q: And the HACU improvement (Rattus norvegicus [2])?
A: The HACU improvement was 21%.

Q: And the HACU improvement (Rattus norvegicus [3])?
A: The HACU improvement was 11%.

Q: For CCCC(=O)Nc1c2c(nc3ncccc13)CCCC2, which HACU improvement (Rattus norvegicus [1]) is on record?
A: The HACU improvement was 15%.

Q: And the HACU improvement (Rattus norvegicus [2])?
A: The HACU improvement was 13%.

Q: What about the HACU improvement (Rattus norvegicus [3]) of the same molecule?
A: The HACU improvement was 10%.

Q: How did the HACU improvement (Rattus norvegicus [1]) turn out when CCCC(=O)Nc1c2c(nc3ccc(F)cc13)CCCC2 was run?
A: The HACU improvement was 2%.

Q: What about the HACU improvement (Rattus norvegicus [2]) of the same molecule?
A: The HACU improvement was 7%.

Q: What about the HACU improvement (Rattus norvegicus [3]) of the same molecule?
A: The HACU improvement was -5%.

Q: Which HACU improvement (Rattus norvegicus [1]) does the source give for CCCC(=O)Nc1c2c(nc3cccc(F)c13)CCCC2 here?
A: The HACU improvement was 9%.

Q: What about the HACU improvement (Rattus norvegicus [2]) of the same molecule?
A: The HACU improvement was 3%.

Q: And the HACU improvement (Rattus norvegicus [3])?
A: Its HACU improvement is 2%.

Q: How did the HACU improvement (Rattus norvegicus [1]) turn out when CCCC(=O)Nc1c2c(nc3ccccc13)CCN(S(=O)(=O)c1ccccc1)C2 was run?
A: Its HACU improvement is 26%.

Q: And the HACU improvement (Rattus norvegicus [2])?
A: Its HACU improvement is 5%.

Q: And the HACU improvement (Rattus norvegicus [3])?
A: Its HACU improvement is 10%.

Q: CCCC(=O)Nc1c2c(nc3ccsc13)CCCC2 was tested. Which HACU improvement (Rattus norvegicus [1]) did it give?
A: The HACU improvement was 7%.

Q: And the HACU improvement (Rattus norvegicus [2])?
A: The HACU improvement was 15%.

Q: What about the HACU improvement (Rattus norvegicus [3]) of the same molecule?
A: Its HACU improvement is 4%.

Q: Which HACU improvement (Rattus norvegicus [1]) does the source give for CCCC(=O)Nc1c2c(nc3ccccc13)CCC(=O)C2 here?
A: Its HACU improvement is 14%.

Q: What about the HACU improvement (Rattus norvegicus [2]) of the same molecule?
A: Its HACU improvement is 14%.

Q: What about the HACU improvement (Rattus norvegicus [3]) of the same molecule?
A: Its HACU improvement is 14%.

Q: For O=C(CN1CCCC1=O)Nc1c2c(nc3ccccc13)CCCC2, which HACU improvement (Rattus norvegicus [1]) is on record?
A: The HACU improvement was 15%.

Q: What about the HACU improvement (Rattus norvegicus [2]) of the same molecule?
A: Its HACU improvement is 14%.

Q: And the HACU improvement (Rattus norvegicus [3])?
A: The HACU improvement was 17%.

Q: CCCC(=O)Nc1c2c(nc3ccccc13)CCC(O)C2 (stereo not drawn) was tested. Which HACU improvement (Rattus norvegicus [1]) did it give?
A: Its HACU improvement is 13%.

Q: And the HACU improvement (Rattus norvegicus [2])?
A: The HACU improvement was 10%.

Q: And the HACU improvement (Rattus norvegicus [3])?
A: The HACU improvement was 16%.

Q: What does the source list for Cc1oc2nc3c(c(NC(=O)CN4CC(=O)NC4=O)c2c1C)CCCC3?
A: HACU improvement (Rattus norvegicus [1]): 5%; HACU improvement (Rattus norvegicus [2]): 16%; HACU improvement (Rattus norvegicus [3]): 12%

Q: CCCC(=O)Nc1c2c(nc3ccccc13)C=CCC2 was tested. Which HACU improvement (Rattus norvegicus [1]) did it give?
A: The HACU improvement was 14%.

Q: What about the HACU improvement (Rattus norvegicus [2]) of the same molecule?
A: Its HACU improvement is -7%.

Q: And the HACU improvement (Rattus norvegicus [3])?
A: The HACU improvement was 8%.

Q: What does the source list for CCCC(=O)Nc1c2c(nc3ccccc13)CCN(C)C2?
A: HACU improvement (Rattus norvegicus [1]): 13%; HACU improvement (Rattus norvegicus [2]): 19%; HACU improvement (Rattus norvegicus [3]): 9%

Q: With CCCC(=O)Nc1c2c(nc3ccccc13)C(C)CCC2 (stereo not drawn) as the molecule, how does the HACU improvement (Rattus norvegicus [1]) read?
A: Its HACU improvement is 10%.

Q: And the HACU improvement (Rattus norvegicus [2])?
A: The HACU improvement was 16%.

Q: What about the HACU improvement (Rattus norvegicus [3]) of the same molecule?
A: The HACU improvement was 17%.
